From PubChem BioAssay AID248 (DTP/NCI, 2004)
Toxic doses and inconclusive results are not listed. Cut-off read from the data, not from the text of the source: active = T/C of 150% or more; inactive = T/C below 125%.

System: L1210 leukemia ip in BDF1 mice, survival T/C
Assay: NCI In Vivo Anticancer Drug Screen. Data for tumor model L1210 Leukemia (intraperitoneal) in B6D2F1 (BDF1) mice
Settings: endpoint: mean survival time, higher = longer survival
Outline: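 Ratio derived from survival: compound-dosed mice over vehicle-dosed mice, all bearing a transplantable tumor.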

[1] = dose: 100.0 mg/kg/injection, schedule: Q01DX009 (ip), vehicle: saline with Tween-80
[2] = dose: 200.0 mg/kg/injection, schedule: Q01DX009 (ip), vehicle: saline with Tween-80
[3] = dose: 400.0 mg/kg/injection, schedule: Q01DX009 (ip), vehicle: saline with Tween-80
[4] = dose: 100.0 mg/kg/injection, schedule: Q01DX001 (ip), vehicle: carboxymethylcellulose (CMC)
[5] = dose: 200.0 mg/kg/injection, schedule: Q01DX001 (ip), vehicle: carboxymethylcellulose (CMC)
[6] = dose: 400.0 mg/kg/injection, schedule: Q01DX001 (ip), vehicle: carboxymethylcellulose (CMC)
[7] = dose: 100.0 mg/kg/injection, schedule: Q01DX001 (ip), vehicle: Klucel (hydroxypropylcellulose) (HPC)
[8] = dose: 200.0 mg/kg/injection, schedule: Q01DX001 (ip), vehicle: Klucel (hydroxypropylcellulose) (HPC)
[9] = dose: 100.0 mg/kg/injection, schedule: Q01DX009 (ip), vehicle: Klucel (hydroxypropylcellulose) (HPC)
[10] = dose: 200.0 mg/kg/injection, schedule: Q01DX009 (ip), vehicle: Klucel (hydroxypropylcellulose) (HPC)
[11] = dose: 400.0 mg/kg/injection, schedule: Q01DX009 (ip), vehicle: Klucel (hydroxypropylcellulose) (HPC)
[12] = dose: 100.0 mg/kg/injection, schedule: Q01DX001 (ip), vehicle: saline
[13] = dose: 100.0 mg/kg/injection, schedule: Q04DX003 (ip), vehicle: saline with Tween-80
[14] = dose: 200.0 mg/kg/injection, schedule: Q04DX003 (ip), vehicle: saline with Tween-80
[15] = dose: 400.0 mg/kg/injection, schedule: Q04DX003 (ip), vehicle: saline with Tween-80
[16] = dose: 100.0 mg/kg/injection, schedule: Q04DX002 (ip), vehicle: Klucel (hydroxypropylcellulose) (HPC)
[17] = dose: 200.0 mg/kg/injection, schedule: Q04DX002 (ip), vehicle: Klucel (hydroxypropylcellulose) (HPC)
[18] = dose: 50.0 mg/kg/injection, schedule: Q01DX001 (ip), vehicle: carboxymethylcellulose (CMC)

Measured: T/C

CC(=O)N1C=Cn2c(cnc2C)C1O (stereo not given)
inactive: dose: 100.0 mg/kg/injection, schedule: Q01DX009 (ip), vehicle: water 104 % of control | dose: 100.0 mg/kg/injection, schedule: Q04DX003 (ip), vehicle: water 109 % of control | dose: 200.0 mg/kg/injection, schedule: Q01DX009 (ip), vehicle: water 94 % of control | dose: 200.0 mg/kg/injection, schedule: Q04DX003 (ip), vehicle: water 102 % of control | dose: 400.0 mg/kg/injection, schedule: Q04DX003 (ip), vehicle: water 98 % of control

CC(C)(C)c1cc(CN2CCOCC2)cc(C(C)(C)C)c1O
inactive: [1] 96 % of control | [2] 104 % of control | [3] 96 % of control

CCc1nnnn1C12CC3CC(CC(C3)C1)C2
inactive: dose: 100.0 mg/kg/injection, schedule: Q04DX003 (ip), vehicle: saline 102 % of control

Cc1cc(N)c2cc(NC(=O)CCCCCCCC(=O)Nc3ccc4nc(C)cc(N)c4c3)ccc2n1
inactive: dose: 20.0 mg/kg/injection, schedule: Q01DX Z (ip), vehicle: methylcellulose (MC) 93 % of control | dose: 33.0 mg/kg/injection, schedule: Q01DX Z (ip), vehicle: methylcellulose (MC) 110 % of control | dose: 50.0 mg/kg/injection, schedule: Q01DX Z (ip), vehicle: methylcellulose (MC) 112 % of control | dose: 75.0 mg/kg/injection, schedule: Q01DX Z (ip), vehicle: methylcellulose (MC) 114 % of control

CCOc1ccc(/C=N\NC(=O)c2ccco2)cc1OCC
inactive: [4] 93 % of control | [5] 95 % of control | [6] 97 % of control

[Co+2].[NH-]C(CC(N)=O)C(=O)O.[NH-]C(CC(N)=O)C(=O)O (stereo not given)
inactive: dose: 100.0 mg/kg/injection, schedule: Q04DX002 (ip), vehicle: saline 108 % of control | dose: 200.0 mg/kg/injection, schedule: Q04DX002 (ip), vehicle: saline 86 % of control

Cc1nc(N)nc(N)c1CCCCc1ccc(N)cc1
inactive: [7] 92 % of control | [8] 101 % of control

CC(C)(C)C(=O)CC(=O)C(C)(C)C.CC(C)(C)C(=O)CC(=O)C(C)(C)C.CC(C)(C)C(=O)CC(=O)C(C)(C)C.[Co]
inactive: dose: 100.0 mg/kg/injection, schedule: Q04DX002 (ip), vehicle: gum acacia 107 % of control | dose: 200.0 mg/kg/injection, schedule: Q04DX002 (ip), vehicle: gum acacia 90 % of control | dose: 400.0 mg/kg/injection, schedule: Q04DX002 (ip), vehicle: gum acacia 93 % of control

NC(CSS(=O)(=O)O)=NCc1cccs1
inactive: dose: 12.5 mg/kg/injection, schedule: Q01DX009 (ip), vehicle: saline with Tween-80 103 % of control | dose: 25.0 mg/kg/injection, schedule: Q01DX009 (ip), vehicle: saline with Tween-80 96 % of control

CCCCNC(=O)Nc1ccc(SC)cc1
inactive: [9] 103 % of control | dose: 100.0 mg/kg/injection, schedule: Q04DX003 (ip), vehicle: Klucel (hydroxypropylcellulose) (HPC) 94 % of control | [10] 95 % of control | dose: 200.0 mg/kg/injection, schedule: Q04DX003 (ip), vehicle: Klucel (hydroxypropylcellulose) (HPC) 93 % of control | [11] 88 % of control | dose: 400.0 mg/kg/injection, schedule: Q04DX003 (ip), vehicle: Klucel (hydroxypropylcellulose) (HPC) 94 % of control

CCCC(N)C(O)c1ccccc1 (stereo not given)
inactive: dose: 75.0 mg/kg/injection, schedule: Q01DX001 (ip), vehicle: saline 102 % of control | dose: 150.0 mg/kg/injection, schedule: Q01DX001 (ip), vehicle: saline 100 % of control

O=C(Cc1cc2c(cc1[N+](=O)[O-])OCO2)c1c[nH]c2ccccc12
inactive: dose: 50.0 mg/kg/injection, schedule: Q01DX001 (ip), vehicle: saline 98 % of control | [12] 98 % of control | dose: 200.0 mg/kg/injection, schedule: Q01DX001 (ip), vehicle: saline 95 % of control | dose: 400.0 mg/kg/injection, schedule: Q01DX001 (ip), vehicle: saline 101 % of control

CCOc1ccc(N=Nc2c(O)n(-c3ccccc3)c(=S)n(-c3ccccc3)c2=O)cc1
inactive: [7] 96 % of control | [8] 107 % of control | dose: 400.0 mg/kg/injection, schedule: Q01DX001 (ip), vehicle: Klucel (hydroxypropylcellulose) (HPC) 100 % of control

O=C(CC(O)(C(F)(F)Cl)C(F)(F)Cl)c1cccs1
inactive: dose: 50.0 mg/kg/injection, schedule: Q04DX003 (ip), vehicle: saline with Tween-80 101 % of control | [1] 108 % of control | [13] 101 % of control | [2] 114 % of control | [14] 98 % of control | [3] 98 % of control | [15] 98 % of control

Brc1ccccc1-c1ccccc1-c1ccccc1
inactive: [13] 92 % of control | [14] 100 % of control | [15] 92 % of control

O=C(O)C(O)C1CCCCC1 (stereo not given)
inactive: [4] 91 % of control | [5] 104 % of control | [6] 94 % of control

CCS(=O)(=O)C(Br)CBr (stereo not given)
inactive: dose: 25.0 mg/kg/injection, schedule: Q01DX009 (ip), vehicle: Klucel (hydroxypropylcellulose) (HPC) 100 % of control | dose: 50.0 mg/kg/injection, schedule: Q01DX009 (ip), vehicle: Klucel (hydroxypropylcellulose) (HPC) 114 % of control | [9] 105 % of control | [16] 103 % of control | [17] 95 % of control

CC(=O)/C(=C\c1ccccc1)CNC(C)(C)C
inactive: [12] 92 % of control

NC(=S)Nc1ccc(C23CCC(CC2)CC3)cc1
inactive: dose: 50.0 mg/kg/injection, schedule: Q01DX009 (ip), vehicle: saline 105 % of control | dose: 100.0 mg/kg/injection, schedule: Q01DX009 (ip), vehicle: saline 105 % of control | dose: 200.0 mg/kg/injection, schedule: Q01DX009 (ip), vehicle: saline 102 % of control

CC1(C)C=C(C(N)=O)C(C)(C)N1O
inactive: dose: 50.0 mg/kg/injection, schedule: Q01DX009 (ip), vehicle: other 98 % of control | dose: 100.0 mg/kg/injection, schedule: Q01DX009 (ip), vehicle: other 101 % of control | dose: 200.0 mg/kg/injection, schedule: Q01DX009 (ip), vehicle: other 95 % of control

COc1cc(/C=N\NC(=O)c2cccc(Cl)c2)ccc1N(CCCl)CCCl
inactive: [18] 100 % of control | [4] 103 % of control | [5] 105 % of control | [6] 103 % of control

CC1CCCCN1C(=O)Nc1ccc(Cl)cc1[N+](=O)[O-] (stereo not given)
inactive: [9] 100 % of control | [10] 91 % of control | [11] 92 % of control

Oc1cccc(C2=NNC(c3cccc(O)c3)=NN2)c1
inactive: dose: 100.0 mg/kg/injection, schedule: Q04DX003 (ip), vehicle: gum acacia 93 % of control | dose: 200.0 mg/kg/injection, schedule: Q04DX003 (ip), vehicle: gum acacia 89 % of control | dose: 400.0 mg/kg/injection, schedule: Q04DX003 (ip), vehicle: gum acacia 86 % of control

CCCCN(CCCC)C(=O)c1[nH]cnc1/N=N\N(C)C
inactive: dose: 50.0 mg/kg/injection, schedule: Q01DX009 (ip), vehicle: saline with Tween-80 117 % of control | dose: 100.0 mg/kg/injection, schedule: Q01DX001 (ip), vehicle: saline with Tween-80 106 % of control | [1] 108 % of control | dose: 200.0 mg/kg/injection, schedule: Q01DX001 (ip), vehicle: saline with Tween-80 118 % of control

CC1(C)C2(c3ccccc3)C3C=CC3C12c1ccccc1 (stereo not given)
inactive: [16] 109 % of control | [17] 112 % of control | dose: 400.0 mg/kg/injection, schedule: Q04DX002 (ip), vehicle: Klucel (hydroxypropylcellulose) (HPC) 102 % of control

O=c1c2cc([N+](=O)[O-])cc3c2-c2c4c(cc([N+](=O)[O-])cc14)c(O)c1cc([N+](=O)[O-])cc(c3=O)c21
inactive: dose: 100.0 mg/kg/injection, schedule: Q04DX003 (ip), vehicle: acetone 123 % of control | dose: 200.0 mg/kg/injection, schedule: Q04DX003 (ip), vehicle: acetone 120 % of control | dose: 266.0 mg/kg/injection, schedule: Q04DX003 (ip), vehicle: saline 111 % of control | dose: 400.0 mg/kg/injection, schedule: Q04DX003 (ip), vehicle: saline 116 % of control

CCSC1OC(COS(C)(=O)=O)C(OS(C)(=O)=O)C1NC(C)=O (stereo not given)
inactive: [18] 97 % of control | [4] 97 % of control | [5] 92 % of control | [6] 97 % of control
